Experiments:
[1] = test system: acetic acid (0.6%) induced writhing; test: acetic acid model of pain (writhing); assay type: in vivo, mice; settings: pretreated
Excerpt: One source of neuronal glutamate is thought to derive from the abundant neuropeptide NAAG which is hydrolyzed by NAALADase to liberate free glutamate. The inventors hypothesized that inhibition of NAALADase could limit pain by preventing this source of glutamate. To test this hypothesis, the inventors examined the possible antinocipetive effects of several NAALADase inhibitors in the formalin-, acetic acid- and chronic constrictive injury (CCI; “Bennett model”) models of pain. […] On day 7, 5% formalin was injected into the dorsum of the rat's hindpaw.

BB/W diabetic rats = test: progression of neuropathic pain in BB/W diabetic rats, thermal nociception; assay type: in vivo, Male BB/W rats; settings: 10 mg/kg i.p. daily; starting after 4 weeks, through six months
Excerpt: Male BB/W rats (BR1, Mass) spontaneously develop a cell mediated autoimmune destruction of pancreatic B cells, resulting in onset of insulin-dependent (Type I) diabetes (Guberski 1994). […] This renders them valuable for experimental trials of new compounds for future treatments of this major disorder. In the present study, Compound 1 and Compound 2 were examined for their ability to alter the progression of diabetic neuropathy. The rats received daily injection of Compound 1 or Compound 2 (10 mg/kg i.p.) or vehicle, starting at the onset of diabetes (hyperglycemia) and up to 6 months thereafter. Another group of non-diabetic rats also receiving vehicle were tested. All animals were continuously monitored for body weight, urine volume, blood sugar and glycated haemoglobin. In the first month of the study, all animals were tested for thermal nociception in a Hargreaves apparatus, weekly. After the first month this was done biweekly and then monthly. The testing consists of directing an infrared heat source onto the […] surface of the rat hindpaw and noting the time taken for the animal to remove its paw (for detailed method see Hargreaves et al. 1998). Each animal was tested 8 times and the mean withdrawal latency noted.

rat MCAO model of stroke = test: in vivo assay on brain injury following MCAO; design: species or system Sprague-Dawley rats
Procedure: The control group received Hepes buffered saline.
Four drug treated groups received Compound 1. For each rat, the treatment was initiated at 60 minutes post middle cerebral artery occlusion (MCAO) by an IV bolus injection which was immediately followed by IV infusion for 4 hours at rate of 0.5 ml/hr. Group 1 (n=9) received a dose of 100 mg/kg IV bolus followed by 20 mg/kg/hr IV infusion for 4 hours. Group 2 (n=11) received a dose of 30 mg/kg IV bolus followed by 6 mg/kg/hr IV infusion for 4 hours. Group 3 (n=9) received a dose of 10 mg/kg IV bolus followed by 2 mg/kg/hr IV infusion for 4 hours. Group 3 rats were also treated at 120 minutes, 180 minutes and 360 minutes post-occlusion. Group 4 (n=8) received a dose of 3 mg/kg IV bolus followed by […] IV infusion for 4 hours.
Two additional drug treated groups received 2-(3-sulfanylpropyl)pentanedioic acid. For each rat, the treatment was initiated at 120 minutes post middle cerebral artery occlusion (MCAO) by an IV bolus injection which was immediately followed by IV infusion for 4 hours at rate of 0.5 ml/hr. Group 5 received a dose of 30 mg/kg IV bolus followed by 6 mg/kg/hr IV infusion for 4 hours. Group 6 received a dose of 10 mg/kg IV bolus followed by 2 mg/kg/hr IV infusion.
Twenty two hours following the reperfusion, the rats were euthanized and their brains were removed. Seven coronal sections (2 mm thick) were taken and stained with 1% solution of 2,3,5-triphenyl-tetraxolium chloride (TTC) for 20 minutes and then fixed in 10% formalin. The anterior and posterior surface of the most rostral brain section and the posterior surface of each of the remaining 6 sections were imaged. The quantification of infarct size of each brain was obtained using a computer aided-digital imaging analysis system (LOATS). The brain regions completely lacking TTC-staining were characterized as representative of infarcted tissue. The total infarct volume for each rat was calculated by numeric integration of the respective sequential brain areas.
Male Sprague-Dawley rats (260-320 g) were used. They were individually housed and allowed free access to food and water. Two days prior to the experiment, they were given restricted food if necessary to maintain the body weight Each rat received two surgeries: femoral vein cannulation for IV infusion and MCAO. During surgeries, the rat was anesthetized with 1.5% halothane delivered in oxygen via an inhalation mask. The body temperature was monitored and regulated at normothermic level using a homeothermic heating system. First, a catheter was inserted into the left femoral vein. Thirty minutes later, the rat was reanesthetized for MCAO surgery. The MCAO was achieved using the endovascular suture method described by Long et al., Stroke, Vol. 20, pp. 84-91 (1989). Specifically, the right external carotid artery (ECA) was exposed, coagulated and transected. A 3-0 monofilament nylon suture with a blunted tip and a coat of 0.05% Poly-1-Lysine was introduced into the proximal stump of the ECA via an arteriotomy. It was advanced 22 mm from the carotid bifurcation until it lodged in the proximal region of the anterior cerebral artery, thereby occluding the origin of the MCA. The rats were allowed to wake up; 2 hours later, the rats were reanesthetized for reperfusion, during which the nylon suture was retracted to the stump of the ECA allowing blood recirculation to the MCA.

PCP-treated rats = test: in vivo assay on schizophrenia (PCP model); settings: 50 mg/kg i.p. before PCP (5 mg/kg)
Procedure: Rats treated with PCP develop symptoms, such as frantic running and incessant head-turning, that parallel psychotic symptoms in humans. Thus, to examine the effects of NAALADase inhibition on schizophrenia, rats were treated intraperitoneally with Compound 1 (50 mg/kg), Compound 2 (50 mg/kg) or a vehicle (H2O) before they received PCP (5 mg/kg). Head rolling scores were measured for over 2 hours following PCP injection.

cortical cell cultures = test: in vitro assay of NAALADase inhibitors on ischemia in cortical cell cultures; assay type: cell-based; settings: concentration required to cause a 50% reduction in glutamate toxicity following an ischemic insult (potassium cyanide and 2-deoxyglucose)
Excerpt: Some results are set forth in U.S. Pat. Nos. 5,672,592, 5,795,877, 5,863,536, 5,880,112 and 5,902,817, allowed U.S. patent application Ser. Nos. 08/825,997, 08/833,628, 08/842,360 and 08/899,319 for which the issue fees have been paid, the entire contents of which patents and applications are herein incorporated by reference. Other results are provided below in TABLE III.

O=C(O)CCC(CCS)C(=O)O (stereo not drawn) [Compound 1, 2-(2-sulfanylethyl)pentanedioic acid]
acetic acid (0.6%) induced writhing vs. vehicle control [1]: significantly attenuated
withdrawal latencies vs. diabetic vehicle-treated rats (BB/W diabetic rats): longer withdrawal latencies
mean total brain infarct volume (rat MCAO model of stroke; Group 1: 100 mg/kg IV bolus + 20 mg/kg/hr IV infusion 4 hours, 60 minutes post MCAO): 123±31 mm^3
mean total brain infarct volume (rat MCAO model of stroke; Group 2: 30 mg/kg IV bolus + 6 mg/kg/hr IV infusion 4 hours, 60 minutes post MCAO): 141±78 mm^3
mean total brain infarct volume (rat MCAO model of stroke; Group 3: 10 mg/kg IV bolus + 2 mg/kg/hr IV infusion 4 hours, treated at 60 minutes post-occlusion): 152±32 mm^3
mean total brain infarct volume (rat MCAO model of stroke; Group 4: 3 mg/kg IV bolus + 3 mg/kg/hr IV infusion 4 hours, 60 minutes post MCAO): 117±22 mm^3
neuroprotection in rat MCAO model of stroke (rat MCAO model of stroke; administered 60, 120, 180 and 360 minutes post-occlusion): neuroprotective
% Protect (rat MCAO model of stroke; dose 1 mg/kg, 60 minutes post MCAO): 20%
% Protect (rat MCAO model of stroke; dose 3 mg/kg, 60 minutes post MCAO): 52%
% Protect (rat MCAO model of stroke; dose 10 mg/kg, 60 minutes post MCAO): 50%
% Protect (rat MCAO model of stroke; dose 10 mg/kg, 120 minutes post MCAO): 33%
% Protect (rat MCAO model of stroke; dose 10 mg/kg, 180 minutes post MCAO): 47%
% Protect (rat MCAO model of stroke; dose 10 mg/kg, 360 minutes post MCAO): 50%
% Protect (rat MCAO model of stroke; dose 30 mg/kg, 60 minutes post MCAO): 52%
% Protect (rat MCAO model of stroke; dose 100 mg/kg IV bolus, 60 minutes post MCAO): 44%
infarct size vs. vehicle treated rats (rat MCAO model of stroke; four Compound 1 treated groups): significantly smaller infarct size
locomotor-activating effects of PCP (head rolling scores) (PCP-treated rats): significantly reduced
EC50 (cortical cell cultures): 2 nM

From patent US20030083374A1, “NAALADase inhibitors useful as pharmaceutical compounds and compositions” (priority 1998, published 2003)
